Measurements published in US20230333087A1, “METHODS FOR MONITORING PATIENT RESPONSE TO TREATMENT OF RETINAL OXIDATIVE DISEASES” (BioJiva LLC, priority 2022, published 2023).

Tests used:
[1] = D-DHA content of neural retina and RPE on 0.25% D-DHA diet by mass spectrometry; format: in vivo, C57BL/6J mice; conditions: for % D-substitution: 4 weeks diet + IVT injection + 1 week
Source text: To determine the pharmacokinetics of ocular D-DHA uptake, incorporation and elimination from the neural retina and RPE/choroid/sclera, twelve-week-old C57BL/6J mice were fed a 0.5% D-DHA containing diet (0.5 g D-DHA/100 g food, Table 3) for 77 days followed by an additional 73-day wash-out phase with DHA. At 4 weeks, >55% of the DHA in the retina was D-DHA rising to >60% at 5 weeks (FIG. 6A). At similar time points, D-DHA in the RPE/choroid/sclera was >80%. […] Based on the accretion and elimination data, two-month-old mice were fed with diets containing either D-DHA or natural DHA control for 1 week, 2 weeks, 3 weeks, and 4 weeks before the IVT injection of iron and saline control (FIG. 6B). In order to better approximate typical DHA doses in human prescription omega-3 supplements (e.g. 1,500 mg/day DHA in Lovaza), the D-DHA and DHA experimental mouse diets were adjusted to 0.25% instead of 0.5% for most of the study. On a 0.25% D-DHA diet, retinal D-DHA levels exceeded 50% at five weeks (52.2±1.5% and 55% of total DHA by our GC- and LC- based MS methods, respectively), regardless of whether eyes were injected with iron or control saline (Table 3).
The extent to which D-DHA replaced natural DHA was determined by LC/MS by feeding an experimental diet containing 0.25% D-DHA for increasing periods of time. Microdissected samples of neural retina and RPE from mice fed the experimental diet for 4 weeks were analyzed after given IVT iron or control saline, and then continued on the experimental diet for another week. It was confirmed that 22.6% of DHA in the control diet consisted of isotopomers due to natural abundance ^13C and no D-DHA. Therefore, signals from the 327.2/283.2 transition represent 78.4% of the total DHA. The experimental diet contained no detectable natural DHA, but rather a distribution of deuterium-substituted DHA isotopologues (FIGS. 11A-C), which is a consequence of the D-DHA preparation method. After corrections were applied for natural abundance ^13C, it was determined that the D10-DHA isotopologue comprised 45.6% of the D-DHA species in the analyzed sample, with Ds-DHA, D9-DHA, D11-DHA, and D12-DHA isotopologues comprising the balance. Therefore, signals from the 337.2/293.2 transition represented 45.6% of the D-DHA. With these corrections applied, D-DHA isotopologues as a percentage of total DHA (i.e., D-DHA + DHA) was determined to be 59.3-60.8 % in isolated RPE, and 55.0 % in neural retina.
Adult male wild-type C57BL/6J mice (Stock No.000664, Jackson Labs, Bar Harbor, ME, USA) were housed in standard conditions under cyclic light (12 h:12 h light-dark cycle). Mice had ad libitum access to water and food. Beginning at 2 mo of age, mice were placed on the AIN93G diet described above, supplemented with 0.25% D-DHA or DHA (control diet) for 1 week, 2 weeks, 3 weeks, or 4 weeks prior to the intravitreal injection. Mice were given an intravitreal injection of 1 µl 0.5 mM ferric ammonium citrate diluted in 0.9% NaCl (saline) (MP Biomedicals LLC, Santa Ana, CA) or
Three types of mass spectrometric analysis were performed to confirm repeatability of results. In the first, lipids were extracted from retinas by a modified Folch method (CHCl3/CH3OH, 2:1). derivatized to fatty acid methyl esters (FAME), and analyzed by high resolution capillary gas chromatography and specialized chemical ionization tandem mass spectrometry. Baseline resolved DHA and D-DHA total ion signal were integrated, and the proportions of D-DHA/total DHA were calculated. The second type of mass spectrometric analysis was performed on samples of the control and experimental diets, as well as microdissected neural retina and RPE from animals on the experimental diet. Lipids were extracted and saponified, and analyzed by ESI-LC/MS on a 4000 QTrap (Sciex) operating in enhanced negative mode over an m/z range of 320 - 345 and a scan rate of 250 /sec. […]

[2] = test system: lipid peroxidation in a lipid membrane; conditions: present at 1% fraction of the total PUFAs in a lipid membrane in vitro; cited from earlier work

retinal D-DHA levels (% of total DHA) ([1]; 0.25% D-DHA diet, five weeks (4+1), neural retina, LC-based MS method): 55% | retinal D-DHA levels (% of total DHA) ([1]; 0.25% D-DHA diet, five weeks, GC-based MS method): 52.2±1.5% | retinal D-DHA levels ([1]; 0.25% D-DHA diet, five weeks, iron or saline injected eyes): exceeded 50% | % D-substitution ([1]; RPE cells, D-DHA + Fe): 59.3 ± 3.9% | % D-substitution ([1]; RPE cells, D-DHA + saline): 60.8 ± 2.1% | D-DHA isotopologues as a percentage of total DHA ([1]; isolated RPE, 0.25% diet, 4+1 weeks, LC/MS): 59.3-60.8% | substitution of DHA with D-DHA in the neural retina ([1]; mice fed with D-DHA for 4 weeks): > 50% | % D-substitution ([1]; neural retina, D-DHA + Fe): 55.0 ± 3.3% | % D-substitution ([1]; neural retina, D-DHA + saline): 55.0 ± 1.8%
Compound: [2H]C([2H])(/C=C\CC)/C=C\C([2H])([2H])/C=C\C([2H])([2H])/C=C\C([2H])([2H])/C=C\C([2H])([2H])/C=C\CCC(=O)OCC [D-DHA, 6,6,9,9,12,12,15,15,18,18-D10-(4Z,7Z,10Z,13Z,16Z, 19Z)-docosa 4,7,10,13,16, 19-hexaenoic acid ethyl ester]
inhibition of LPO in liposomes [2]: efficiently inhibited the LPO
